The text below walks through data of US5179107A, “Antiviral quinolinone compounds” (Schering Corporation, priority 1991, dated 1993).

One data set deals with HSV-2 (strain MS). Briefly: HSV-β-GAL assay: transient expression of beta galactosidase in pON 245^ori- transfected HeLa cells infected with HSV-2. Format: cell-based. The note with it: multiple numbers = additional tests; for IC50: Human alphaherpesvirus 2, HeLa, 24 h. As to the method: (§1) HeLa and Vero cell cultures were maintained in Eagles Minimal Essential Medium which was supplemented with glutamine, penicillin, streptomycin and 10% fetal calf serum (10% EMEM). Stock cultures of HSV-2 (strain MS available from ATCC VR-540) were grown in and harvested from Vero cells. Viral stocks were titered in Vero cells according to established procedures.
Plasmid pON 245^ori- contains the promoter of the HSV-1 thymidine kinase (tk) gene located immediately 5' of the E. coli lac Z gene. In this arrangement, the tk promoter controls transcription from the bacterial gene in transient expression assays. Additionally, an SV40 polyadenylation signal is present at the 3' end of the lac Z gene to allow for the efficient translation of the mRNA in eucaryotic cells. The expression of beta galactosidase in a transient assay using pON 245^ori- is dependent upon superinfection of the transfected cells with HSV. […] For example, see U.S. application Ser. No. 07/435,491 filed Sep. 5, 1989, the disclosure of which is incorporated herein by reference thereto.
HeLa cells were seeded into 96 well microtiter plates and allowed to grow to 80% confluency (approximately 35000 cells/well). One half microgram of plasmid pON 245^ori- DNA was introduced into the cells of each well by the […] precipitation technique (Grahman and Van der Eb, 1973). Four to six hours later, the cells were rinsed with Hank's Balanced Salt Solution (HBSS), overlaid with 10% EMEM and incubated at 37° C. At 24 hrs post-transfection, cells were rinsed, overlaid with 10% EMEM again and re-incubated at 37° C. At 48 hrs. post-transfection, cells were rinsed and overlaid with either EMEM containing 2% fetal calf serum (2% EMEM), 2% EMEM containing HSV-2 (strain MS, Multiplicity of infection [moi]=5 pfu/cell) or 2% EMEM containing HSV-2 and the appropriate concentration of the compound to be tested. Twenty-four hrs later, the cells were harvested and assayed for beta galactosidase activity as described below.
(§2) All determinations of beta galactosidase activity were performed in 96 well microtiter plates. The intracellular level of beta galactosidase activity in each well was determined from cell lysates of the monolayer cultures. […] The generation of fluorescent product was quantified on a Microfluor microfluorimeter (Dynatech) after addition of 0.1M glycine, pH 10.3 (Spaete and Mocarski, 1985). The inhibitory activity of a compound was plotted versus the concentration and an IC50 value (the concentration of compound required to reduce beta glactosidase expression by 50%) was obtained for each compound tested.
The in-vitro anti-HSV activity of compounds of this invention is set forth in Table I. More than one number for a particular entry indicates the results for additional tests.

Data set [1] is described as follows: Cytotoxicity, ^3 H-LEU assay (HeLa cell translation). The class given is cell-based. The note with it: human, hela cells, inhibition of cellular translational activity, overnight/24 hrs incubation, read-out: CYTOTOXICITY ^3 H-LEU ASSAY IC50. As to the method:
as §1
(§3) HeLa cells were treated with inhibitory compound for 24 hrs, after which levels of translational activity were assayed.
(§4) For assay of translational activity, HeLa cultures were grown to 80% confluency in 96 well microtiter plates, treated with appropriate concentrations of compound in 2% EMEM during an overnight incubation at 37° C., then rinsed with HBSS and overlaid with […] of 2% EMEM containing 8 uCi of tritiated leucine (^3 H-LEU, […], Amersham Corp., Arlington Heights Ill.). After a 1 hr incubation at 36.5° C., the cells were rinsed twice with phosphate buffered saline (PBS) and lysed in 400 ul/well of 1×PBS, 0.5% sodium dodecyl sulphate (SDS). After a 10 min incubation at 36.5° C., the contents of the well were transferred to a well in a Millititer HA microfiltration plate (Millipore Corp., Bedford, Mass.). The TCA insoluble proteins were precipitated onto the filter disc by a 10 min fixation with 5% TCA, followed by filtration under vacuum and three 10 minute rinses with 95% ethanol. The filters were dried at room temperature, cut from the milltitier plate and transferred to scintillation vials. TCA precipitable counts were assayed in 5 ml of Scintisol (Isolab, Akron, Ohio). The inhibitory activity of a compound was plotted versus the concentration and an IC50 value (that concentration of the compound required to decrease cellular translational activity by 50%) was derived for each compound.

For the next data set, the system named is CMV (strain Towne). The data set can be described thus: CMV-β-Gal assay: transient expression of beta galactosidase, plasmid pON249 ΔNH3, in human foreskin fibroblasts. Format: cell-based. The note with it: multiple numbers = additional tests; for ANTI-CMV ACTIVITY CMV-β-Gal ASSAY IC50: CMV strain Towne, human foreskin fibroblasts; for IC50: Human betaherpesvirus 5, Fibroblast, read-out: ANTI-CMV ACTIVITY CMV-β-Gal ASSAY IC50, CMV strain Towne, human foreskin fibroblasts. As to the method: as §2
The in-vitro CMV activity of the compounds represented by Formulas 1.1 and 1.3 were determined using the following CMV assay.
Human foreskin fibroblast (HHF) cell cultures were grown in 10% EMEM. CMV (strain Towne received from Stanford University) was grown and titered in HHF cells. Plasmids pON249 ΔNH3, containing CMV promoter genes, were used in the β-galactosidase transient expression assay as shown above.
More than one number for a particular entry indicates the results of additional tests.

Data set [2] is described as follows: CMV toxicity assay, ^3 H-LEU assay in HFF cells. The class given is cell-based. As to conditions: human, read-out: CYTOTOXICITY ^3 H-LEU ASSAY IC50 (CMV toxicity assay).
A further data set relates to HSV-2, strain MS. Briefly: Prophylactic guinea pig model of HSV infection (genital lesions, Maximum Lesion scores). The class given is in vivo. The note with it: subcutaneous, 60 mg per kg, every eight hours for 10 days, from 24 hrs prior to infection. As to the method:
The in vivo assessment of anti-HSV efficacy was determined in the prophylactic guinea pig model of HSV infection described by Stansberry et al (1982). Dosing of guinea pigs was comprised of an initial treatment with test compound given 24 hrs prior to virus infection and subsequent administration of the compound every eight hours (T.I.D.) for a total of 10 days. Test compounds were administered subcutaneously in 0.5% buffered methyl cellulose at a dose of 60 mg per kg body weight of the animal. Animals were monitored daily for the developement of genital lesions and neurological symptomology, both of which were recorded and compared to the results obtained with parallel groups which received placebo or acyclovir treatment. Efficacy was evaluated for each compound by scoring the ability of the compound to ameliorate genital lesions produced by infection with HSV-2, strain MS, expressed as Maximum Lesion scores (MLS) on a scale of 1 (least lesions) to 4 (severe lesions).

Another data set concerns HeLa cells. The data set can be described thus: Cytotoxicity, ^3 H-LEU assay (HeLa cell translation). The note with it: inhibition of cellular translational activity, overnight/24 hrs incubation, 1440 min. Format: cell-based. As to the method: as §1, §3, §4
For data set [3], the system named is HSV. The note with it: added to lidocaine or lidocaine hydrochloride; U.S. Pat. No. 4,757,088; cited from earlier work.
In a further data set the test system is HSV-1. As to conditions: U.S. Pat. No. 4,757,088; cited from earlier work.
In another data set the test system is HSV-2. The note with it: U.S. Pat. No. 4,757,088; cited from earlier work.
Another data set has as its system herpes virus. As to conditions: U.S. Pat. No. 4,757,088; cited from earlier work.
Data set [4] concerns HSV. As to conditions: U.S. Pat. No. 4,757,088; cited from earlier work.
The mark [5] stands for this setting: HSV-2 strain MS, moi 5 pfu/cell, HeLa cells, 24 hrs, read-out: ANTI-HSV ACTIVITY HSV-β-GAL ASSAY IC50.

Where “and” joins values, the source holds several entries; their conditions need not be identical. Identical values can stand only once. Like-named read-outs stand apart in the source and are kept apart here. Where only a bound is given, the exact number is not on record here.

Regarding `Cn1c(=O)c(O)c(O)c2ccccc21` [Formula 1.1], the IC50 in the data set with HSV-2 (strain MS) (read-out: ANTI-HSV ACTIVITY HSV-β-GAL ASSAY IC50, HSV-2 strain MS, moi 5 pfu/cell, HeLa cells, 24 hrs) was less than 3 mg/L. Further, in data set [1], the CC50 at 24 h was 21 mg/L. In the data set on CMV (strain Towne), the “ANTI-CMV ACTIVITY CMV-β-Gal ASSAY IC50” value worked out at 1 mg/L and the IC50 came to 1.5 mg/L. In addition, the CC50 in data set [2] amounted to 36 mg/L. The “In-vivo anti-HSV activity” value with HSV-2, strain MS was “inactive”.

`O=c1c(O)c(O)c2ccccc2n1Cc1ccccc1` [Formula 1.2]: in data set [1], the CC50 at 24 h was determined as 32 mg/L.

Consider `CCCCCCCn1c(=O)c(O)c(O)c2ccccc21` [Formula 1.3], for which the “ANTI-HSV ACTIVITY HSV-β-GAL ASSAY IC50” value in the data set on HSV-2 (strain MS) (HSV-2 strain MS, moi 5 pfu/cell, HeLa cells, 24 hrs) was 2 mg/L and 3 mg/L. For the same compound, the IC50 in the data set on HSV-2 (strain MS) (setting [5]) is less than 3 mg/L. Also, the CC50 at 24 h in data set [1] came out at 37 mg/L. Also, in the data set on HeLa cells, the “CYTOTOXICITY ^3 H-LEU ASSAY IC50” value is 30 mg/L. Further, in the data set on CMV (strain Towne), the “ANTI-CMV ACTIVITY CMV-β-Gal ASSAY IC50” value came to 9 mg/L and the IC50 was 13 mg/L. Also, the CC50 in data set [2] was determined as 25 mg/L.

Take `Cn1cccc1C(=O)Oc1c(OC(=O)c2cccn2C)c2ccccc2n(C)c1=O` [Formula 1.4]: in data set [1], the CC50 at 24 h is more than 100 mg/L.

Turning to `Cn1c(=O)c(OC(=O)c2ccc[nH]2)c(OC(=O)c2ccc[nH]2)c2ccccc21` [Formula 1.5], in [1], the CC50 at 24 h is 28 mg/L.

`O=c1c(O)c(O)c2ccccc2n1-c1ccccc1` [Formula 1.6]: the IC50 with HSV-2 (strain MS) (setting [5]) was 9 mg/L. Moreover, the CC50 at 24 h in data set [1] turned out to be 8 mg/L.

Turning to `Cn1c(=O)c(OC(=O)c2ccc(Br)o2)c(OC(=O)c2ccc(Br)o2)c2ccccc21` [Formula 1.7], in the data set with HSV-2 (strain MS) (setting [5]), the IC50 amounted to 10 mg/L. Also, in data set [1], the CC50 at 24 h is more than 50 mg/L.

Regarding `Cn1c(=O)c(OC(=O)c2cccs2)c(OC(=O)c2cccs2)c2ccccc21` [Formula 1.8], the IC50 in the data set with HSV-2 (strain MS) (setting [5]) is 19 mg/L. The CC50 at 24 h in data set [1] is more than 50 mg/L.

Take `Cn1c(=O)c(OC(=O)c2ccccc2)c(OC(=O)c2ccccc2)c2ccccc21` [Formula 1.9]: in the data set on HSV-2 (strain MS) (setting [5]), the IC50 stood at 20 mg/L. In addition, the CC50 at 24 h in data set [1] is 58 mg/L.

Turning to `CCC(=O)Oc1c(OC(=O)CC)c2ccccc2n(C)c1=O` [Formula 1.10], the IC50 in the data set on HSV-2 (strain MS) (setting [5]) was determined as 17 mg/L. For the same compound, the CC50 at 24 h in data set [1] came out at 34 mg/L.

`COc1c(OC)c2ccccc2n(C)c1=O` [Formula 1.11]: the IC50 in the data set with HSV-2 (strain MS) (setting [5]) is 25 mg/L. The CC50 at 24 h in [1] was more than 100 mg/L.

For the compound `CC(C)(CO)[C@@H](O)C(=O)NCCCO` [dexpanthenol], the “effect of addition to lidocaine or lidocaine hydrochloride on their antiviral activity” value in the data set on HSV [3] is recorded as “significantly enhances the antiviral activity”.

For `CCN(CC)CC(=O)Nc1c(C)cccc1C` [lidocaine, 2-(diethylamino)-N-(2,6-dimethylphenyl)acetamide], the “antiviral activity in cell culture against HSV-1” value with HSV-1 is listed as “antiviral agent”. Moreover, in the data set with HSV-2, the “antiviral activity in cell culture against HSV-2” value is recorded as “antiviral agent”. Also, in the data set with herpes virus, the “treatment of herpes virus infections of mammals” value is “able to treat herpes virus infections of mammals”. Besides, the “treatment of HSV oral and genital lesions in humans” value in the data set on HSV [4] is given as “particularly effective”.

Turning to `CC(C)(CO)[C@@H](O)C(=O)NCCC(=O)O` [pantothenic acid], the “effect of addition to lidocaine or lidocaine hydrochloride on their antiviral activity” value with HSV [3] was “significantly enhances the antiviral activity”.
